{"source": "the supplement of paper PMC10307832", "data": [{"compound": "CC1(COc2ccc3c(c2)ncn3-c2ccc3cccc(N4CCC(N)CC4)c3n2)COC1 [Crenolanib] + CCNC(=O)c1noc(-c2cc(C(C)C)c(O)cc2O)c1-c1ccc(CN2CCOCC2)cc1 [Luminespib] (partner 0.01 µM)", "assay": "relative viability (nuclei count vs DMSO), 5 days (fraction); higher = more cells survive", "conditions": "first compound 0.01 µM", "method_in_brief": "(§1)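 Medians of duplicate plates are given as relative viability. That measure is the nuclei count in treated wells divided by the count in vehicle wells. Counts were taken on 4× images of lung cancer cell lines in 1536-well plates, 5 days after pin-tool dosing the day after seeding with one drug alone or a fixed anchor-drug dose plus five library-drug doses (not always all listed) in √10 steps.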", "values": [{"cell line": "NCI-H522", "relative viability": 1.01}, {"cell line": "NCI-H1623", "relative viability": 0.582}, {"cell line": "NCI-H838", "relative viability": 0.353}, {"cell line": "NCI-H1651", "relative viability": 0.867}, {"cell line": "NCI-H1734", "relative viability": 0.174}, {"cell line": "NCI-H2009", "relative viability": 1.04}, {"cell line": "EPLC-272H", "relative viability": 0.371}, {"cell line": "PC-14", "relative viability": 0.126}, {"cell line": "LCLC-97TM1", "relative viability": 0.777}, {"cell line": "NCI-H596", "relative viability": 1.11}, {"cell line": "NCI-H2228", "relative viability": 0.137}, {"cell line": "EMC-BAC-2", "relative viability": 1.31}, {"cell line": "NCI-H2087", "relative viability": 0.184}, {"cell line": "HCC-44", "relative viability": 1.26}, {"cell line": "NCI-H647", "relative viability": 0.202}, {"cell line": "LK-2", "relative viability": 0.169}, {"cell line": "NCI-H2126", "relative viability": 0.922}, {"cell line": "NCI-H2342", "relative viability": 0.822}, {"cell line": "SK-MES-1", "relative viability": 0.827}, {"cell line": "HARA", "relative viability": 0.643}, {"cell line": "COR-L23", "relative viability": 0.709}, {"cell line": "COR-L 105", "relative viability": 1.12}, {"cell line": "LC-2-ad", "relative viability": 1.07}, {"cell line": "LU99A", "relative viability": 0.253}, {"cell line": "ChaGo-K-1", "relative viability": 0.595}, {"cell line": "NCI-H2170", "relative viability": 0.741}, {"cell line": "NCI-H3122", "relative viability": 0.0862}, {"cell line": "SW 900", "relative viability": 0.167}, {"cell line": "LXF-289", "relative viability": 0.657}, {"cell line": "BEN", "relative viability": 0.644}, {"cell line": "HCC-15", "relative viability": 0.276}, {"cell line": "HCC-827", "relative viability": 0.7}, {"cell line": "NCI-H1563", "relative viability": 0.552}, {"cell line": "NCI-H1792", "relative viability": 0.563}]}, {"compound": "CC1(COc2ccc3c(c2)ncn3-c2ccc3cccc(N4CCC(N)CC4)c3n2)COC1 [Crenolanib] + CCNC(=O)c1noc(-c2cc(C(C)C)c(O)cc2O)c1-c1ccc(CN2CCOCC2)cc1 [Luminespib] (partner 0.01 µM)", "assay": "relative viability (nuclei count vs DMSO), 5 days (fraction); higher = more cells survive", "conditions": "first compound 0.03162 µM", "method_in_brief": "as §1", "values": [{"cell line": "NCI-H522", "relative viability": 0.993}, {"cell line": "NCI-H1623", "relative viability": 0.41}, {"cell line": "NCI-H838", "relative viability": 0.235}, {"cell line": "NCI-H1651", "relative viability": 0.926}, {"cell line": "NCI-H1734", "relative viability": 0.171}, {"cell line": "NCI-H2009", "relative viability": 1.08}, {"cell line": "EPLC-272H", "relative viability": 0.574}, {"cell line": "LCLC-97TM1", "relative viability": 0.749}, {"cell line": "NCI-H596", "relative viability": 0.97}, {"cell line": "NCI-H2228", "relative viability": 0.15}, {"cell line": "EMC-BAC-2", "relative viability": 1.17}, {"cell line": "NCI-H2087", "relative viability": 0.195}, {"cell line": "HCC-44", "relative viability": 0.98}, {"cell line": "NCI-H647", "relative viability": 0.206}, {"cell line": "LK-2", "relative viability": 0.18}, {"cell line": "NCI-H2126", "relative viability": 0.958}, {"cell line": "NCI-H2342", "relative viability": 0.701}, {"cell line": "SK-MES-1", "relative viability": 0.728}, {"cell line": "HARA", "relative viability": 0.734}, {"cell line": "COR-L23", "relative viability": 0.679}, {"cell line": "COR-L 105", "relative viability": 0.973}, {"cell line": "LC-2-ad", "relative viability": 0.929}, {"cell line": "LU99A", "relative viability": 0.217}, {"cell line": "ChaGo-K-1", "relative viability": 0.612}, {"cell line": "NCI-H2170", "relative viability": 0.568}, {"cell line": "NCI-H3122", "relative viability": 0.0824}, {"cell line": "SW 900", "relative viability": 0.177}, {"cell line": "LXF-289", "relative viability": 0.772}, {"cell line": "BEN", "relative viability": 0.257}, {"cell line": "HCC-15", "relative viability": 0.408}, {"cell line": "HCC-827", "relative viability": 0.607}, {"cell line": "NCI-H1563", "relative viability": 0.499}, {"cell line": "NCI-H1792", "relative viability": 0.424}]}, {"compound": "CC1(COc2ccc3c(c2)ncn3-c2ccc3cccc(N4CCC(N)CC4)c3n2)COC1 [Crenolanib] + CCNC(=O)c1noc(-c2cc(C(C)C)c(O)cc2O)c1-c1ccc(CN2CCOCC2)cc1 [Luminespib] (partner 0.01 µM)", "assay": "relative viability (nuclei count vs DMSO), 5 days (fraction); higher = more cells survive", "conditions": "first compound 0.1 µM", "method_in_brief": "as §1", "values": [{"cell line": "NCI-H522", "relative viability": 1.15}, {"cell line": "NCI-H1623", "relative viability": 0.457}, {"cell line": "NCI-H838", "relative viability": 0.29}, {"cell line": "NCI-H1651", "relative viability": 0.711}, {"cell line": "NCI-H1734", "relative viability": 0.191}, {"cell line": "NCI-H2009", "relative viability": 1.06}, {"cell line": "EPLC-272H", "relative viability": 0.366}, {"cell line": "PC-14", "relative viability": 0.154}, {"cell line": "LCLC-97TM1", "relative viability": 0.792}, {"cell line": "NCI-H596", "relative viability": 0.932}, {"cell line": "NCI-H2228", "relative viability": 0.105}, {"cell line": "EMC-BAC-2", "relative viability": 1.17}, {"cell line": "NCI-H2087", "relative viability": 0.167}, {"cell line": "HCC-44", "relative viability": 1.05}, {"cell line": "NCI-H647", "relative viability": 0.44}, {"cell line": "LK-2", "relative viability": 0.16}, {"cell line": "NCI-H2126", "relative viability": 0.869}, {"cell line": "NCI-H2342", "relative viability": 0.779}, {"cell line": "SK-MES-1", "relative viability": 0.699}, {"cell line": "HARA", "relative viability": 0.626}, {"cell line": "COR-L23", "relative viability": 0.63}, {"cell line": "COR-L 105", "relative viability": 0.743}, {"cell line": "LC-2-ad", "relative viability": 0.955}, {"cell line": "LU99A", "relative viability": 0.219}, {"cell line": "ChaGo-K-1", "relative viability": 0.655}, {"cell line": "NCI-H2170", "relative viability": 0.761}, {"cell line": "NCI-H3122", "relative viability": 0.0708}, {"cell line": "SW 900", "relative viability": 0.172}, {"cell line": "LXF-289", "relative viability": 0.617}, {"cell line": "BEN", "relative viability": 0.425}, {"cell line": "HCC-15", "relative viability": 0.355}, {"cell line": "HCC-827", "relative viability": 0.617}, {"cell line": "NCI-H1563", "relative viability": 0.531}, {"cell line": "NCI-H1792", "relative viability": 0.367}]}, {"compound": "CC1(COc2ccc3c(c2)ncn3-c2ccc3cccc(N4CCC(N)CC4)c3n2)COC1 [Crenolanib] + CCNC(=O)c1noc(-c2cc(C(C)C)c(O)cc2O)c1-c1ccc(CN2CCOCC2)cc1 [Luminespib] (partner 0.01 µM)", "assay": "relative viability (nuclei count vs DMSO), 5 days (fraction); higher = more cells survive", "conditions": "first compound 0.3162 µM", "method_in_brief": "as §1", "values": [{"cell line": "NCI-H522", "relative viability": 1.17}, {"cell line": "NCI-H1623", "relative viability": 0.633}, {"cell line": "NCI-H838", "relative viability": 0.301}, {"cell line": "NCI-H1651", "relative viability": 0.875}, {"cell line": "NCI-H1734", "relative viability": 0.173}, {"cell line": "NCI-H2009", "relative viability": 1.11}, {"cell line": "EPLC-272H", "relative viability": 0.168}, {"cell line": "PC-14", "relative viability": 0.118}, {"cell line": "LCLC-97TM1", "relative viability": 0.844}, {"cell line": "NCI-H596", "relative viability": 1.12}, {"cell line": "NCI-H2228", "relative viability": 0.193}, {"cell line": "EMC-BAC-2", "relative viability": 1.45}, {"cell line": "NCI-H2087", "relative viability": 0.191}, {"cell line": "HCC-44", "relative viability": 0.771}, {"cell line": "NCI-H647", "relative viability": 0.233}, {"cell line": "LK-2", "relative viability": 0.17}, {"cell line": "NCI-H2126", "relative viability": 0.857}, {"cell line": "NCI-H2342", "relative viability": 0.77}, {"cell line": "SK-MES-1", "relative viability": 0.83}, {"cell line": "HARA", "relative viability": 0.875}, {"cell line": "COR-L23", "relative viability": 0.848}, {"cell line": "COR-L 105", "relative viability": 0.859}, {"cell line": "LC-2-ad", "relative viability": 0.963}, {"cell line": "LU99A", "relative viability": 0.287}, {"cell line": "ChaGo-K-1", "relative viability": 0.655}, {"cell line": "NCI-H2170", "relative viability": 1.02}, {"cell line": "NCI-H3122", "relative viability": 0.0964}, {"cell line": "SW 900", "relative viability": 0.218}, {"cell line": "LXF-289", "relative viability": 0.722}, {"cell line": "BEN", "relative viability": 0.528}, {"cell line": "HCC-15", "relative viability": 0.315}, {"cell line": "HCC-827", "relative viability": 0.568}, {"cell line": "NCI-H1563", "relative viability": 0.517}, {"cell line": "NCI-H1792", "relative viability": 0.394}]}, {"compound": "CC1(COc2ccc3c(c2)ncn3-c2ccc3cccc(N4CCC(N)CC4)c3n2)COC1 [Crenolanib] + CCNC(=O)c1noc(-c2cc(C(C)C)c(O)cc2O)c1-c1ccc(CN2CCOCC2)cc1 [Luminespib] (partner 0.01 µM)", "assay": "relative viability (nuclei count vs DMSO), 5 days (fraction); higher = more cells survive", "conditions": "first compound 1 µM", "method_in_brief": "as §1", "values": [{"cell line": "NCI-H522", "relative viability": 1.21}, {"cell line": "NCI-H1623", "relative viability": 0.357}, {"cell line": "NCI-H838", "relative viability": 0.373}, {"cell line": "NCI-H1651", "relative viability": 0.748}, {"cell line": "NCI-H1734", "relative viability": 0.291}, {"cell line": "NCI-H2009", "relative viability": 0.982}, {"cell line": "EPLC-272H", "relative viability": 0.319}, {"cell line": "PC-14", "relative viability": 0.146}, {"cell line": "LCLC-97TM1", "relative viability": 0.753}, {"cell line": "NCI-H596", "relative viability": 1.11}, {"cell line": "NCI-H2228", "relative viability": 0.228}, {"cell line": "EMC-BAC-2", "relative viability": 1.18}, {"cell line": "NCI-H2087", "relative viability": 0.184}, {"cell line": "HCC-44", "relative viability": 0.784}, {"cell line": "NCI-H647", "relative viability": 0.107}, {"cell line": "LK-2", "relative viability": 0.199}, {"cell line": "NCI-H2126", "relative viability": 0.588}, {"cell line": "NCI-H2342", "relative viability": 0.807}, {"cell line": "SK-MES-1", "relative viability": 0.57}, {"cell line": "HARA", "relative viability": 0.828}, {"cell line": "COR-L23", "relative viability": 0.574}, {"cell line": "COR-L 105", "relative viability": 0.732}, {"cell line": "LC-2-ad", "relative viability": 0.756}, {"cell line": "LU99A", "relative viability": 0.207}, {"cell line": "ChaGo-K-1", "relative viability": 0.68}, {"cell line": "NCI-H2170", "relative viability": 0.672}, {"cell line": "NCI-H3122", "relative viability": 0.0864}]}]}
